± gives the expanded uncertainty stated by the source.
Experiment: xn = mol fraction of the nth substance listed
Conditions: 100 kPa, Liquid; for mass density: Vibrating tube method; for viscosity: Concentric cylinders viscometry

CC(=O)CC(C)C [4-methylpentan-2-one] + CCC(C)O
mass density (308.15 K, x1 = 0.1002): 792 ± 0.3 kg/m3
mass density (308.15 K, x1 = 0.1905): 790.5 ± 0.3 kg/m3
mass density (308.15 K, x1 = 0.2801): 789.3 ± 0.3 kg/m3
mass density (308.15 K, x1 = 0.4054): 788 ± 0.3 kg/m3
mass density (308.15 K, x1 = 0.4891): 787.4 ± 0.3 kg/m3
mass density (308.15 K, x1 = 0.6123): 786.7 ± 0.3 kg/m3
mass density (308.15 K, x1 = 0.6942): 786.5 ± 0.3 kg/m3
mass density (308.15 K, x1 = 0.779): 786.5 ± 0.3 kg/m3
mass density (308.15 K, x1 = 0.8747): 786.5 ± 0.3 kg/m3
mass density (308.15 K, x1 = 0.9522): 786.7 ± 0.3 kg/m3
mass density (308.15 K, x1 = 1): 786.9 ± 0.3 kg/m3
viscosity (313.15 K, x1 = 0.1002): 1.341 ± 0.029 mPa·s
viscosity (313.15 K, x1 = 0.1905): 1.1 ± 0.024 mPa·s
viscosity (313.15 K, x1 = 0.2801): 0.94 ± 0.02 mPa·s
viscosity (313.15 K, x1 = 0.4054): 0.787 ± 0.017 mPa·s
viscosity (313.15 K, x1 = 0.4891): 0.708 ± 0.016 mPa·s
viscosity (313.15 K, x1 = 0.6123): 0.621 ± 0.014 mPa·s
viscosity (313.15 K, x1 = 0.6942): 0.58 ± 0.013 mPa·s
viscosity (313.15 K, x1 = 0.779): 0.544 ± 0.012 mPa·s
viscosity (313.15 K, x1 = 0.8747): 0.505 ± 0.012 mPa·s
viscosity (313.15 K, x1 = 0.9522): 0.485 ± 0.011 mPa·s
viscosity (313.15 K, x1 = 1): 0.463 ± 0.011 mPa·s
mass density (313.15 K, x1 = 0.1002): 787.6 ± 0.3 kg/m3
mass density (313.15 K, x1 = 0.1905): 786 ± 0.3 kg/m3
mass density (313.15 K, x1 = 0.2801): 784.7 ± 0.3 kg/m3
mass density (313.15 K, x1 = 0.4054): 783.4 ± 0.3 kg/m3
mass density (313.15 K, x1 = 0.4891): 782.7 ± 0.3 kg/m3
mass density (313.15 K, x1 = 0.6123): 782.1 ± 0.3 kg/m3
mass density (313.15 K, x1 = 0.6942): 781.9 ± 0.3 kg/m3
mass density (313.15 K, x1 = 0.779): 781.8 ± 0.3 kg/m3
mass density (313.15 K, x1 = 0.8747): 781.9 ± 0.3 kg/m3
mass density (313.15 K, x1 = 0.9522): 782.1 ± 0.3 kg/m3
mass density (313.15 K, x1 = 1): 782.3 ± 0.3 kg/m3
viscosity (318.15 K, x1 = 0.1002): 1.181 ± 0.025 mPa·s
viscosity (318.15 K, x1 = 0.1905): 0.984 ± 0.021 mPa·s
viscosity (318.15 K, x1 = 0.2801): 0.847 ± 0.018 mPa·s
viscosity (318.15 K, x1 = 0.4054): 0.715 ± 0.016 mPa·s
viscosity (318.15 K, x1 = 0.4891): 0.649 ± 0.014 mPa·s
viscosity (318.15 K, x1 = 0.6123): 0.575 ± 0.013 mPa·s
viscosity (318.15 K, x1 = 0.6942): 0.535 ± 0.012 mPa·s
viscosity (318.15 K, x1 = 0.779): 0.505 ± 0.012 mPa·s
viscosity (318.15 K, x1 = 0.8747): 0.477 ± 0.011 mPa·s
viscosity (318.15 K, x1 = 0.9522): 0.458 ± 0.011 mPa·s
viscosity (318.15 K, x1 = 1): 0.437 ± 0.01 mPa·s
mass density (318.15 K, x1 = 0.1002): 783 ± 0.3 kg/m3
mass density (318.15 K, x1 = 0.1905): 781.3 ± 0.3 kg/m3
mass density (318.15 K, x1 = 0.2801): 780 ± 0.3 kg/m3
mass density (318.15 K, x1 = 0.4054): 778.6 ± 0.3 kg/m3
mass density (318.15 K, x1 = 0.4891): 777.9 ± 0.3 kg/m3
mass density (318.15 K, x1 = 0.6123): 777.3 ± 0.3 kg/m3
mass density (318.15 K, x1 = 0.6942): 777.1 ± 0.3 kg/m3
mass density (318.15 K, x1 = 0.779): 777 ± 0.3 kg/m3
mass density (318.15 K, x1 = 0.8747): 777.1 ± 0.3 kg/m3
mass density (318.15 K, x1 = 0.9522): 777.4 ± 0.3 kg/m3
mass density (318.15 K, x1 = 1): 777.6 ± 0.3 kg/m3
viscosity (323.15 K, x1 = 0.1002): 1.035 ± 0.022 mPa·s
viscosity (323.15 K, x1 = 0.1905): 0.88 ± 0.019 mPa·s
viscosity (323.15 K, x1 = 0.2801): 0.772 ± 0.017 mPa·s
viscosity (323.15 K, x1 = 0.4054): 0.662 ± 0.015 mPa·s
viscosity (323.15 K, x1 = 0.4891): 0.603 ± 0.014 mPa·s
viscosity (323.15 K, x1 = 0.6123): 0.535 ± 0.012 mPa·s
viscosity (323.15 K, x1 = 0.6942): 0.501 ± 0.011 mPa·s
viscosity (323.15 K, x1 = 0.779): 0.471 ± 0.011 mPa·s
viscosity (323.15 K, x1 = 0.8747): 0.449 ± 0.01 mPa·s
viscosity (323.15 K, x1 = 0.9522): 0.434 ± 0.01 mPa·s
viscosity (323.15 K, x1 = 1): 0.41 ± 0.01 mPa·s
mass density (323.15 K, x1 = 0.1002): 778.3 ± 0.3 kg/m3
mass density (323.15 K, x1 = 0.1905): 776.6 ± 0.3 kg/m3
mass density (323.15 K, x1 = 0.2801): 775.3 ± 0.3 kg/m3
mass density (323.15 K, x1 = 0.4054): 773.8 ± 0.3 kg/m3
mass density (323.15 K, x1 = 0.4891): 773.2 ± 0.3 kg/m3
mass density (323.15 K, x1 = 0.6123): 772.6 ± 0.3 kg/m3
mass density (323.15 K, x1 = 0.6942): 772.4 ± 0.3 kg/m3
mass density (323.15 K, x1 = 0.779): 772.3 ± 0.3 kg/m3
mass density (323.15 K, x1 = 0.8747): 772.5 ± 0.3 kg/m3
mass density (323.15 K, x1 = 0.9522): 772.7 ± 0.3 kg/m3
mass density (323.15 K, x1 = 1): 773 ± 0.3 kg/m3
